{"source": "paper PMC5218480", "about": "(PLoS ONE, 2017)", "test_system": "MV-4-11 cells", "experiment": "Gene expression microarray analysis (Affymetrix PrimeView) and GSEA", "format": "cell-based, human", "design": "RFU PODN (11730768_x_at) / Fold change /veh PODN (11730768_x_at) / RFU LINC00158 (11744669_a_at) / Fold change /veh LINC00158 (11744669_a_at) / RFU DUSP10 (11751237_a_at) / Fold change /veh DUSP10 (11751237_a_at) / RFU ID3 (11757404_x_at) / Fold change /veh ID3 (11757404_x_at) / RFU PLEKHG5 (11737974_s_at) / Fold change /veh PLEKHG5 (11737974_s_at) / RFU LRRC4B (11730491_at) / Fold change /veh LRRC4B (11730491_at) / RFU GIMAP4 (11747438_a_at) / Fold change /veh GIMAP4 (11747438_a_at) / RFU KRT8 (11758183_x_at) / Fold change /veh KRT8 (11758183_x_at) / RFU CNN1 (11734310_a_at) / Fold change /veh CNN1 (11734310_a_at) / RFU VPS37D (11726825_at) / Fold change /veh VPS37D (11726825_at) / RFU C10orf10 (11716522_x_at) / Fold change /veh C10orf10 (11716522_x_at) / RFU KIR2DL2 /// KIR2DL4 /// KIR2DL5A /// KIR2DL5B /// KIR2DS1 /// KIR2DS2 /// KIR2DS3 /// KIR2DS4 /// KIR3DL3 /// KIR3DL3 /// KIR3DS1 (11738374_at) / Fold change /veh KIR2DL2 /// KIR2DL4 /// KIR2DL5A /// KIR2DL5B /// KIR2DS1 /// KIR2DS2 /// KIR2DS3 /// KIR2DS4 /// KIR3DL3 /// KIR3DL3 /// KIR3DS1 (11738374_at) / RFU C1QL1 (11718748_at) / Fold change /veh C1QL1 (11718748_at) / RFU TMPRSS4 (11747572_a_at) / Fold change /veh TMPRSS4 (11747572_a_at) / RFU HAMP (11756126_x_at) / Fold change /veh HAMP (11756126_x_at) / RFU RNFT2 (11725882_a_at) / Fold change /veh RNFT2 (11725882_a_at) / RFU NR4A2 (11747474_a_at) / Fold change /veh NR4A2 (11747474_a_at) / RFU ABCC12 (11746883_a_at) / Fold change /veh ABCC12 (11746883_a_at) / RFU TMEM136 (11760407_x_at) / Fold change /veh TMEM136 (11760407_x_at) / RFU CLDN22 /// WWC2 (11732394_at) / Fold change /veh CLDN22 /// WWC2 (11732394_at) / RFU HLA-DPB1 (11760878_x_at) / Fold change /veh HLA-DPB1 (11760878_x_at) / RFU SPINT1 (11716480_a_at) / Fold change /veh SPINT1 (11716480_a_at) / RFU GAP43 (11754022_s_at) / Fold change /veh GAP43 (11754022_s_at) / RFU A4GNT (11735810_at) / Fold change /veh A4GNT (11735810_at) / RFU PRB3 (11715151_x_at) / Fold change /veh PRB3 (11715151_x_at) / RFU TUBB4B (11761932_at) / Fold change /veh TUBB4B (11761932_at) / RFU CAPN14 (11732068_a_at) / Fold change /veh CAPN14 (11732068_a_at) / RFU TMCC2 (11721928_a_at) / Fold change /veh TMCC2 (11721928_a_at) / RFU IRGQ (11745062_a_at) / Fold change /veh IRGQ (11745062_a_at) / RFU FAM174B (11720279_a_at) / Fold change /veh FAM174B (11720279_a_at) / RFU TMPRSS4 (11748680_a_at) / Fold change /veh TMPRSS4 (11748680_a_at) / RFU FAM212B (11763350_a_at) / Fold change /veh FAM212B (11763350_a_at) / RFU PLEKHG5 (11743358_a_at) / Fold change /veh PLEKHG5 (11743358_a_at) / RFU ZSCAN30 (11745921_a_at) / Fold change /veh ZSCAN30 (11745921_a_at) / RFU CMKLR1 (11741424_a_at) / Fold change /veh CMKLR1 (11741424_a_at) / RFU LOC101060620 /// MAPK8IP1 (11723275_at) / Fold change /veh LOC101060620 /// MAPK8IP1 (11723275_at) / RFU SPTSSB (11747773_x_at) / Fold change /veh SPTSSB (11747773_x_at) / RFU PRSS12 (11739890_at) / Fold change /veh PRSS12 (11739890_at) / RFU BIN1 (11741810_x_at) / Fold change /veh BIN1 (11741810_x_at) / RFU WNT11 (11732464_a_at) / Fold change /veh WNT11 (11732464_a_at) / RFU C10orf10 (11716521_a_at) / Fold change /veh C10orf10 (11716521_a_at) / RFU C5orf56 (11738089_at) / Fold change /veh C5orf56 (11738089_at) / RFU CYB561 (11721691_x_at) / Fold change /veh CYB561 (11721691_x_at) / RFU ANKRD19P (11752326_a_at) / Fold change /veh ANKRD19P (11752326_a_at) / RFU OR2T12 /// OR2T33 /// OR2T8 (11738714_s_at) / Fold change /veh OR2T12 /// OR2T33 /// OR2T8 (11738714_s_at) / RFU VCAN (11748164_a_at) / Fold change /veh VCAN (11748164_a_at) / RFU JSRP1 (11732532_at) / Fold change /veh JSRP1 (11732532_at) / RFU KRTAP10-11 (11738290_x_at) / Fold change /veh KRTAP10-11 (11738290_x_at) / RFU MYO3A (11730013_a_at) / Fold change /veh MYO3A (11730013_a_at) / RFU EBF3 (11725865_a_at) / Fold change /veh EBF3 (11725865_a_at) / RFU CAMK2N1 (11719241_x_at) / Fold change /veh CAMK2N1 (11719241_x_at) / RFU C5orf56 (11738088_a_at) / Fold change /veh C5orf56 (11738088_a_at) / RFU OLFML3 (11715873_a_at) / Fold change /veh OLFML3 (11715873_a_at) / RFU LOC100653217 /// NTM (11731650_a_at) / Fold change /veh LOC100653217 /// NTM (11731650_a_at) / RFU MAPK11 (11762145_a_at) / Fold change /veh MAPK11 (11762145_a_at) / RFU FIZ1 (11724087_x_at) / Fold change /veh FIZ1 (11724087_x_at) / RFU OASL (11726364_x_at) / Fold change /veh OASL (11726364_x_at) / RFU SOX15 (11748057_x_at) / Fold change /veh SOX15 (11748057_x_at) / RFU CD79A (11719716_a_at) / Fold change /veh CD79A (11719716_a_at) / RFU HIST1H1D (11736915_at) / Fold change /veh HIST1H1D (11736915_at) / RFU CASKIN2 (11723855_a_at) / Fold change /veh CASKIN2 (11723855_a_at) / RFU LOC730098 (11760151_x_at) / Fold change /veh LOC730098 (11760151_x_at) / RFU OR4N2 (11742367_at) / Fold change /veh OR4N2 (11742367_at) / RFU PRRT2 (11749266_a_at) / Fold change /veh PRRT2 (11749266_a_at) / RFU SNX32 (11753110_a_at) / Fold change /veh SNX32 (11753110_a_at) / RFU CDHR5 (11726645_a_at) / Fold change /veh CDHR5 (11726645_a_at) / RFU RCAN1 (11760418_a_at) / Fold change /veh RCAN1 (11760418_a_at) / RFU FAM167A (11723789_a_at) / Fold change /veh FAM167A (11723789_a_at) / RFU FAM26E (11764081_at) / Fold change /veh FAM26E (11764081_at) / RFU ISYNA1 (11749810_s_at) / Fold change /veh ISYNA1 (11749810_s_at) / RFU ACY1 (11761880_at) / Fold change /veh ACY1 (11761880_at) / RFU 11764098_at / Fold change /veh 11764098_at / RFU SAMD14 (11745864_x_at) / Fold change /veh SAMD14 (11745864_x_at) / RFU NPB (11741838_a_at) / Fold change /veh NPB (11741838_a_at) / RFU TMPRSS6 (11731388_a_at) / Fold change /veh TMPRSS6 (11731388_a_at) / RFU KRTAP10-2 (11738614_at) / Fold change /veh KRTAP10-2 (11738614_at) / RFU ARHGAP8 /// PRR5-ARHGAP8 (11727945_x_at) / Fold change /veh ARHGAP8 /// PRR5-ARHGAP8 (11727945_x_at) / RFU KRTAP5-7 /// NADSYN1 (11734609_at) / Fold change /veh KRTAP5-7 /// NADSYN1 (11734609_at) / RFU RASL12 (11751679_a_at) / Fold change /veh RASL12 (11751679_a_at) / RFU CDKN2B (11736163_a_at) / Fold change /veh CDKN2B (11736163_a_at) / RFU PRF1 (11729649_at) / Fold change /veh PRF1 (11729649_at) / RFU, ZNF638 /// ZNF638-IT1 / Fold change vs veh, ZNF638 /// ZNF638-IT1 / RFU, PANK3 / Fold change vs veh, PANK3 / RFU, SH3YL1 / Fold change vs veh, SH3YL1 / RFU, ZEB2 / Fold change vs veh, ZEB2 / RFU, NRIP1 / Fold change vs veh, NRIP1 / RFU, PTTG1IP / Fold change vs veh, PTTG1IP / RFU, CAPN2 / Fold change vs veh, CAPN2 / RFU, MED14 / Fold change vs veh, MED14 / RFU, SNORA58 / Fold change vs veh, SNORA58 / RFU, C1orf63 / Fold change vs veh, C1orf63 / RFU, LRRFIP1 / Fold change vs veh, LRRFIP1 / RFU, NDUFAF7 / Fold change vs veh, NDUFAF7 / RFU, SLC12A2 / Fold change vs veh, SLC12A2 / RFU, IBTK / Fold change vs veh, IBTK / RFU, ESF1 / Fold change vs veh, ESF1 / Fold change vs veh, TMEM50B / RFU, TAOK1 / Fold change vs veh, TAOK1 / RFU, ACBD3 / Fold change vs veh, ACBD3 / RFU, TMA16 / Fold change vs veh, TMA16 / RFU, RWDD3 / Fold change vs veh, RWDD3 / RFU, BCAT1 / Fold change vs veh, BCAT1 / RFU, EDEM3 / Fold change vs veh, EDEM3 / RFU, TMEM33 / Fold change vs veh, TMEM33 / RFU, WDR75 / Fold change vs veh, WDR75 / RFU, AHCTF1 / Fold change vs veh, AHCTF1 / RFU, TFRC / Fold change vs veh, TFRC / RFU, ZDHHC17 / Fold change vs veh, ZDHHC17 / RFU, NOM1 / Fold change vs veh, NOM1 / RFU, ARL8B / Fold change vs veh, ARL8B / RFU, ZBTB11 / Fold change vs veh, ZBTB11 / RFU, TAMM41 / Fold change vs veh, TAMM41 / RFU, KIAA1704 /// LOC100996395 / Fold change vs veh, KIAA1704 /// LOC100996395 / RFU, ING1 / Fold change vs veh, ING1 / RFU, TRMT61B / Fold change vs veh, TRMT61B / RFU, FUBP3 / Fold change vs veh, FUBP3 / RFU, TP53 / Fold change vs veh, TP53 / RFU, TNKS2 / Fold change vs veh, TNKS2 / RFU, ZFP14 / Fold change vs veh, ZFP14 / RFU, ACTR2 / Fold change vs veh, ACTR2 / RFU, PPP3R1 / Fold change vs veh, PPP3R1 / RFU, PIK3R1 / Fold change vs veh, PIK3R1 / RFU, HNRNPA1 / Fold change vs veh, HNRNPA1 / RFU, RNF170 / Fold change vs veh, RNF170 / RFU, ZNF28 / Fold change vs veh, ZNF28 / RFU, RNGTT / Fold change vs veh, RNGTT / RFU, OGT / Fold change vs veh, OGT / RFU, BRD1 / Fold change vs veh, BRD1 / RFU, MARS / Fold change vs veh, MARS / RFU, ZNF655 / Fold change vs veh, ZNF655 / RFU, FAHD1 / Fold change vs veh, FAHD1 / RFU, BDP1 / Fold change vs veh, BDP1 / RFU, LRRCC1 / Fold change vs veh, LRRCC1 / RFU, ARID1A / Fold change vs veh, ARID1A / RFU, ZNF146 / Fold change vs veh, ZNF146 / RFU, ZNF330 / Fold change vs veh, ZNF330 / RFU, GPN3 / Fold change vs veh, GPN3 / RFU, C9orf123 / Fold change vs veh, C9orf123 / RFU, N4BP2L2 / Fold change vs veh, N4BP2L2 / RFU, ARFIP1 / Fold change vs veh, ARFIP1 / RFU, FAM179B / Fold change vs veh, FAM179B / RFU, BCL10 / Fold change vs veh, BCL10 / RFU, UHRF1BP1L / Fold change vs veh, UHRF1BP1L / RFU, BET1 / Fold change vs veh, BET1 / RFU, CNOT2 / Fold change vs veh, CNOT2 / RFU, ZNF268 / Fold change vs veh, ZNF268 / Fold change vs veh, ZNF507 / RFU, DGCR2 / Fold change vs veh, DGCR2 / RFU, WDSUB1 / Fold change vs veh, WDSUB1 / Fold change vs veh, HSP90B1 /// MIR3652 / RFU, ADSS / Fold change vs veh, ADSS / RFU, GK / Fold change vs veh, GK / RFU, ZNF148 / Fold change vs veh, ZNF148 / RFU, TAF9 / Fold change vs veh, TAF9 / RFU, SLC1A5 / Fold change vs veh, SLC1A5 / RFU, SLMO2 / Fold change vs veh, SLMO2 / RFU, ABCC4 / Fold change vs veh, ABCC4 / RFU, LOC101060439 /// RAP1B / Fold change vs veh, LOC101060439 /// RAP1B / RFU, RFX7 / Fold change vs veh, RFX7 / RFU, GTPBP10 / Fold change vs veh, GTPBP10 / RFU, CNEP1R1 / Fold change vs veh, CNEP1R1 / RFU, BIVM-ERCC5 /// ERCC5 / Fold change vs veh, BIVM-ERCC5 /// ERCC5 / RFU, ILF3 / Fold change vs veh, ILF3 / RFU 11762660_at / Fold change /veh 11762660_at / RFU VCAN (11757783_s_at) / Fold change /veh VCAN (11757783_s_at) / RFU DDX43 (11728927_at) / Fold change /veh DDX43 (11728927_at) / RFU KRT8 (11758188_x_at) / Fold change /veh KRT8 (11758188_x_at) / RFU NKD1 (11759106_at) / Fold change /veh NKD1 (11759106_at) / RFU SRD5A1 (11742802_a_at) / Fold change /veh SRD5A1 (11742802_a_at) / RFU TPSAB1 /// TPSB2 (11721975_s_at) / Fold change /veh TPSAB1 /// TPSB2 (11721975_s_at) / RFU GSTM3 (11746129_a_at) / Fold change /veh GSTM3 (11746129_a_at) / RFU IL23R (11737362_x_at) / Fold change /veh IL23R (11737362_x_at) / RFU TMEM51 (11727254_a_at) / Fold change /veh TMEM51 (11727254_a_at) / RFU PIWIL2 (11732686_x_at) / Fold change /veh PIWIL2 (11732686_x_at) / RFU ORM1 (11744905_x_at) / Fold change /veh ORM1 (11744905_x_at) / RFU CCDC152 (11743942_at) / Fold change /veh CCDC152 (11743942_at) / RFU ECM1 (11717891_a_at) / Fold change /veh ECM1 (11717891_a_at) / RFU IL23R (11748794_a_at) / Fold change /veh IL23R (11748794_a_at) / RFU TNFAIP8L3 (11732012_x_at) / Fold change /veh TNFAIP8L3 (11732012_x_at) / RFU MBOAT4 (11741988_at) / Fold change /veh MBOAT4 (11741988_at) / RFU 11764193_at / Fold change /veh 11764193_at / RFU TMEM53 (11763286_at) / Fold change /veh TMEM53 (11763286_at) / RFU MAGEB2 (11727129_at) / Fold change /veh MAGEB2 (11727129_at) / RFU TMEM200A (11744735_a_at) / Fold change /veh TMEM200A (11744735_a_at) / RFU CCDC152 (11751479_a_at) / Fold change /veh CCDC152 (11751479_a_at) / RFU FAM211A (11726209_a_at) / Fold change /veh FAM211A (11726209_a_at) / RFU RGS16 (11746705_a_at) / Fold change /veh RGS16 (11746705_a_at) / RFU VCAN (11755009_s_at) / Fold change /veh VCAN (11755009_s_at) / RFU RHOB (11743442_s_at) / Fold change /veh RHOB (11743442_s_at) / RFU RGS16 (11720943_a_at) / Fold change /veh RGS16 (11720943_a_at) / RFU RGS16 (11720944_at) / Fold change /veh RGS16 (11720944_at) / RFU, VPS4B / Fold change vs veh, VPS4B / RFU, CREB1 / Fold change vs veh, CREB1 / RFU, DNAJC13 / Fold change vs veh, DNAJC13 / RFU, GNAQ / Fold change vs veh, GNAQ / RFU, CDK5R1 / Fold change vs veh, CDK5R1 / RFU, ZRANB3 / Fold change vs veh, ZRANB3 / RFU, CUL4A / Fold change vs veh, CUL4A / RFU, CCNY / Fold change vs veh, CCNY / RFU, UFL1 / Fold change vs veh, UFL1 / RFU, COG3 / Fold change vs veh, COG3 / RFU, DIAPH2 / Fold change vs veh, DIAPH2 / RFU, SKA2 / Fold change vs veh, SKA2 / RFU, AFF3 / Fold change vs veh, AFF3 / RFU, LMF1 / Fold change vs veh, LMF1 / RFU, IPO11 / Fold change vs veh, IPO11 / RFU, DFFB / Fold change vs veh, DFFB / RFU, FOXP1 / Fold change vs veh, FOXP1 / RFU, CARD8 / Fold change vs veh, CARD8 / RFU, STRN3 / Fold change vs veh, STRN3 / RFU, ADK / Fold change vs veh, ADK / RFU, RASSF2 / Fold change vs veh, RASSF2 / RFU, WIPF1 / Fold change vs veh, WIPF1 / RFU, LARP1B / Fold change vs veh, LARP1B / RFU, RASA1 / Fold change vs veh, RASA1 / RFU, RB1 / Fold change vs veh, RB1 / RFU, PPFIA1 / Fold change vs veh, PPFIA1 / RFU, MAT2A / Fold change vs veh, MAT2A / RFU, CCT5 / Fold change vs veh, CCT5 / RFU, WDR92 / Fold change vs veh, WDR92 / RFU, CUX1 / Fold change vs veh, CUX1 / RFU, TTC7A / Fold change vs veh, TTC7A / RFU, TMEM135 / Fold change vs veh, TMEM135 / RFU, DEPTOR / Fold change vs veh, DEPTOR / RFU, CPM / Fold change vs veh, CPM / RFU, DNAJB6 / Fold change vs veh, DNAJB6 / RFU, CACNA2D3 / Fold change vs veh, CACNA2D3 / RFU, DTX4 / Fold change vs veh, DTX4 / RFU, TFCP2 / Fold change vs veh, TFCP2 / RFU, GMCL1 /// GMCL1P1 / Fold change vs veh, GMCL1 /// GMCL1P1 / RFU, AEBP2 / Fold change vs veh, AEBP2 / RFU, SNHG1 /// SNORD22 /// SNORD25 /// SNORD26 /// SNORD27 /// SNORD28 /// SNORD29 /// SNORD31 / Fold change vs veh, SNHG1 /// SNORD22 /// SNORD25 /// SNORD26 /// SNORD27 /// SNORD28 /// SNORD29 /// SNORD31 / Fold change (Aza/veh), C12orf56 (ProbeSet 11735607_a_at) / Fold change (ACY-1035/veh), C12orf56 (ProbeSet 11735607_a_at) / Fold change (Aza/veh), FGFR1OP (ProbeSet 11751329_s_at) / Fold change (ACY-1035/veh), FGFR1OP (ProbeSet 11751329_s_at) / Fold change (Aza/veh), VPS36 (ProbeSet 11739960_a_at) / Fold change (ACY-1035/veh), VPS36 (ProbeSet 11739960_a_at) / RFU SYPL1 (11715823_x_at) / Fold change /veh SYPL1 (11715823_x_at) / RFU IGFBP7 (11715501_s_at) / Fold change /veh IGFBP7 (11715501_s_at) / RFU REEP3 (11722064_at) / Fold change /veh REEP3 (11722064_at) / RFU IGLL1 (11728026_x_at) / Fold change /veh IGLL1 (11728026_x_at): dose or concentration left out as unconfirmed", "details": "ProbeSet 11754362_a_at; LIST D", "data": [{"smiles": "Nc1ncn([C@@H]2O[C@H](CO)[C@@H](O)[C@H]2O)c(=O)n1", "note": "[azacitidine]", "values": [{"measurement": "Fold change vs veh, TTC7A", "result": 0.72}]}]}
